# From PubChem BioAssay (NCI)
#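 Interpolation was linear, between the two tested concentrations surrounding the appropriate level; five concentrations were tested over 48 hours in 96-well plates. GI50: concentration for 50% inhibition of growth. At the TGI there is no net growth.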
# Columns and labels:
# Experiment in all cases: NCI tumour cell line growth inhibition, 48 h
# [1] = test system: HOP-62 NSCLC
# [2] = test system: U251 CNS
# [3] = test system: NCI-H460 lung
# [4] = test system: LOX IMVI melanoma
# [5] = test system: TK-10 renal
# [6] = test system: SK-OV-3 ovarian
# [7] = test system: ACHN renal
# [8] = test system: OVCAR-5 ovarian
# [9] = test system: OVCAR-8 ovarian
# [10] = test system: OVCAR-3 ovarian
# [11] = test system: SR leukemia
# [12] = test system: CAKI-1 renal
# [13] = test system: SK-MEL-5 melanoma
# [14] = test system: HCC-2998 colon
# [15] = test system: SNB-75 CNS
# [16] = test system: T-47D breast
# [17] = test system: MALME-3M melanoma
# [18] = test system: A498 renal
# [19] = test system: MCF7 breast
# [20] = test system: KM12 colon
# [21] = test system: HCT-116 colon
# [22] = test system: PC-3 prostate
# [23] = test system: M14 melanoma
# [24] = test system: SN12C renal
# [25] = test system: NCI-H522 lung
# [26] = test system: COLO 205 colon
# [27] = test system: NCI-H23 lung
# [28] = test system: UACC-257 melanoma
# [29] = test system: HCT-15 colon
# [30] = test system: SK-MEL-2 melanoma
# [31] = test system: SF-268 CNS
# [32] = test system: SW-620 colon
# [33] = test system: SF-295 CNS
# [34] = test system: HL-60(TB) leukemia
# [35] = test system: HOP-92 NSCLC
# [36] = test system: IGROV1 ovarian
# [37] = test system: UACC-62 melanoma
# [38] = test system: SK-MEL-28 melanoma
# [39] = test system: RXF 393 renal
# [40] = test system: DU-145 prostate
# [41] = test system: BT-549 breast
# [42] = test system: K-562 leukemia
# [43] = test system: OVCAR-4 ovarian
# [44] = test system: SF-539 CNS
# [45] = test system: RPMI-8226 leukemia
# [46] = test system: MDA-MB-435
# [47] = test system: MDA-MB-231 breast
# [48] = test system: A549 NSCLC
# [49] = test system: UO-31 renal
# [50] = test system: NCI-H226 lung
# [51] = test system: NCI/ADR-RES ovarian
# [52] = test system: HS 578T breast
# [53] = test system: EKVX NSCLC
# [54] = test system: CCRF-CEM leukemia
# [55] = test system: 786-0 renal
# [56] = test system: SNB-19 CNS
# [57] = test system: HT29 colon
smiles,measurement,setting,value
O=c1ccc2nc(C(F)(F)F)nn(-c3ccccc3)c-2c1,GI50,[1],7.95 µM
same,TGI,[1],27.7 µM
same,GI50,[2],13.4 µM
same,TGI,[2],28.6 µM
same,GI50,[3],17.6 µM
same,TGI,[3],36.2 µM
same,GI50,[4],1.59 µM
same,TGI,[4],3.22 µM
same,GI50,[5],1.62 µM
same,TGI,[5],3.09 µM
same,GI50,[6],15 µM
same,TGI,[6],> 100 µM
same,GI50,[7],1.18 µM
same,TGI,[7],2.45 µM
same,GI50,[8],15.4 µM
same,TGI,[8],29.1 µM
same,GI50,[9],4.21 µM
same,TGI,[9],33.9 µM
same,GI50,[10],1.58 µM
same,TGI,[10],2.95 µM
same,GI50,[11],0.999 µM
same,TGI,[11],> 100 µM
same,GI50,[12],1.47 µM
same,TGI,[12],2.8 µM
same,GI50,[13],7.8 µM
same,TGI,[13],21.1 µM
same,GI50,[14],15.4 µM
same,TGI,[14],29.7 µM
same,GI50,[15],13.3 µM
same,TGI,[15],26.4 µM
same,GI50,[16],1.69 µM
same,TGI,[16],6.62 µM
same,GI50,[17],1.82 µM
same,TGI,[17],3.3 µM
same,GI50,[18],14.1 µM
same,TGI,[18],27.2 µM
same,GI50,[19],0.495 µM
same,TGI,[19],4.07 µM
same,GI50,[20],19.6 µM
same,TGI,[20],37.3 µM
same,GI50,[21],1.61 µM
same,TGI,[21],3.15 µM
same,GI50,[22],10.7 µM
same,TGI,[22],23.7 µM
same,GI50,[23],5.8 µM
same,TGI,[23],19 µM
same,GI50,[24],7.31 µM
same,TGI,[24],57.4 µM
same,GI50,[25],1.51 µM
same,TGI,[25],3.01 µM
same,GI50,[26],2.32 µM
same,TGI,[26],5.77 µM
same,GI50,[27],5.96 µM
same,TGI,[27],22.2 µM
same,GI50,[28],1.91 µM
same,TGI,[28],4.05 µM
same,GI50,[29],1.45 µM
same,TGI,[29],3.42 µM
same,GI50,[30],3.63 µM
same,TGI,[30],15.6 µM
same,GI50,[31],15 µM
same,TGI,[31],28.9 µM
same,GI50,[32],1.75 µM
same,TGI,[32],3.71 µM
same,GI50,[33],22.7 µM
same,TGI,[33],67.1 µM
same,GI50,[34],1.21 µM
same,TGI,[34],4.31 µM
same,GI50,[35],1.41 µM
same,TGI,[35],2.97 µM
same,GI50,[36],11.9 µM
same,TGI,[36],25.5 µM
same,GI50,[37],5.13 µM
same,TGI,[37],17.9 µM
same,GI50,[38],1.7 µM
same,TGI,[38],3.26 µM
same,GI50,[39],1.45 µM
same,TGI,[39],2.8 µM
same,GI50,[40],1.77 µM
same,TGI,[40],3.17 µM
same,GI50,[41],12.3 µM
same,TGI,[41],24.8 µM
same,GI50,[42],2.11 µM
same,TGI,[42],9.14 µM
same,GI50,[43],1.47 µM
same,TGI,[43],2.83 µM
same,GI50,[44],15.8 µM
same,TGI,[44],29.3 µM
same,GI50,[45],4.82 µM
same,TGI,[45],77.5 µM
same,GI50,[46],4.56 µM
same,TGI,[46],16.4 µM
same,GI50,[47],1.92 µM
same,TGI,[47],5.55 µM
same,GI50,[48],19.3 µM
same,TGI,[48],39 µM
same,GI50,[49],1.48 µM
same,TGI,[49],2.9 µM
same,GI50,[50],13.1 µM
same,TGI,[50],30.5 µM
same,GI50,[51],17.1 µM
same,TGI,[51],64 µM
same,GI50,[52],12.2 µM
same,TGI,[52],80.4 µM
same,GI50,[53],13.6 µM
same,TGI,[53],27.1 µM
Nn1c2c(c3ccccc3c1=O)C(=O)c1ccccc1-2,GI50,[1],24.5 µM
same,TGI,[1],> 50 µM
same,GI50,[2],20.5 µM
same,TGI,[2],> 50 µM
same,GI50,[3],40.5 µM
same,TGI,[3],> 50 µM
same,GI50,[4],> 50 µM
same,TGI,[4],> 50 µM
same,GI50,[5],18.1 µM
same,TGI,[5],> 50 µM
same,GI50,[7],> 50 µM
same,TGI,[7],> 50 µM
same,GI50,[8],> 50 µM
same,TGI,[8],> 50 µM
same,GI50,[9],26.7 µM
same,TGI,[9],> 50 µM
same,GI50,[10],> 50 µM
same,TGI,[10],> 50 µM
same,GI50,[11],31 µM
same,TGI,[11],> 50 µM
same,GI50,[12],> 50 µM
same,TGI,[12],> 50 µM
same,GI50,[13],> 50 µM
same,TGI,[13],> 50 µM
same,GI50,[14],> 50 µM
same,TGI,[14],> 50 µM
same,GI50,[15],11.6 µM
same,TGI,[15],33.5 µM
same,GI50,[16],> 50 µM
same,TGI,[16],> 50 µM
same,GI50,[17],> 50 µM
same,TGI,[17],> 50 µM
same,GI50,[18],> 50 µM
same,TGI,[18],> 50 µM
same,GI50,[19],20 µM
same,TGI,[19],> 50 µM
same,GI50,[20],> 50 µM
same,TGI,[20],> 50 µM
same,GI50,[21],> 50 µM
same,TGI,[21],> 50 µM
same,GI50,[22],> 50 µM
same,TGI,[22],> 50 µM
same,GI50,[23],> 50 µM
same,TGI,[23],> 50 µM
same,GI50,[24],> 50 µM
same,TGI,[24],> 50 µM
same,GI50,[25],30.1 µM
same,TGI,[25],> 50 µM
same,GI50,[26],> 50 µM
same,TGI,[26],> 50 µM
same,GI50,[27],> 50 µM
same,TGI,[27],> 50 µM
same,GI50,[28],> 50 µM
same,TGI,[28],> 50 µM
same,GI50,[29],> 50 µM
same,TGI,[29],> 50 µM
same,GI50,[54],> 50 µM
same,TGI,[54],> 50 µM
same,GI50,[30],> 50 µM
same,TGI,[30],> 50 µM
same,GI50,[31],15.7 µM
same,TGI,[31],> 50 µM
same,GI50,[32],> 50 µM
same,TGI,[32],> 50 µM
same,GI50,[33],30.1 µM
same,TGI,[33],> 50 µM
same,GI50,[34],> 50 µM
same,TGI,[34],> 50 µM
same,GI50,[35],> 50 µM
same,TGI,[35],> 50 µM
same,GI50,[36],> 50 µM
same,TGI,[36],> 50 µM
same,GI50,[37],> 50 µM
same,TGI,[37],> 50 µM
same,GI50,[55],37.7 µM
same,TGI,[55],> 50 µM
same,GI50,[38],> 50 µM
same,TGI,[38],> 50 µM
same,GI50,[39],15.7 µM
same,TGI,[39],> 50 µM
same,GI50,[40],> 50 µM
same,TGI,[40],> 50 µM
same,GI50,[41],> 50 µM
same,TGI,[41],> 50 µM
same,GI50,[42],> 50 µM
same,TGI,[42],> 50 µM
same,GI50,[56],20.9 µM
same,TGI,[56],> 50 µM
same,GI50,[43],> 50 µM
same,TGI,[43],> 50 µM
same,GI50,[44],27.9 µM
same,TGI,[44],> 50 µM
same,GI50,[57],> 50 µM
same,TGI,[57],> 50 µM
same,GI50,[45],> 50 µM
same,TGI,[45],> 50 µM
same,GI50,[46],> 50 µM
same,TGI,[46],> 50 µM
same,GI50,[47],> 50 µM
same,TGI,[47],> 50 µM
same,GI50,[48],> 50 µM
same,TGI,[48],> 50 µM
same,GI50,[49],> 50 µM
same,TGI,[49],> 50 µM
same,GI50,[50],48.3 µM
same,TGI,[50],> 50 µM
same,GI50,[51],> 50 µM
same,TGI,[51],> 50 µM
same,GI50,[52],18.4 µM
same,TGI,[52],> 50 µM
same,GI50,[53],> 50 µM
same,TGI,[53],> 50 µM
